Experimental findings from publication PMC7760514, “Fatty Acid Conjugation Leads to Length-Dependent Antimicrobial Activity of a Synthetic Antibacterial Peptide (Pep19-4LF)” (Antibiotics, 2020) are described below.

The test system of data set [1] is Acinetobacter bohemicus (DSM 100419). Kind of data set: Minimal bactericidal concentration (MBC). The data set is classed as cell-based. The settings on record: Table S2, n=3; unit inferred; lowest concentration killing 99.9% of the inoculum; agar 24 h, 30 ± 1 °C. The protocol:
(§1) Minimal bactericidal concentrations (MBCs) were determined by pipetting 3 µL of each broth dilution solution without visible growth onto a new agar plate. The agar plates were incubated at 37 ± 1 °C (for A. bohemicus: 30 ± 1 °C) for 24 h and were again analyzed with respect to bacterial growth. MBC is defined as the lowest concentration killing 99.9% of the inoculum.

For data set [2] the test system is unchanged. Briefly: Minimal inhibitory concentration (MIC), broth microdilution. Type of data set: cell-based. Also on record: key to MIC value: MIC in μg/mL (lowest concentration without visible growth). The settings on record: 30 ± 1 °C; for MIC value: Table S2, n=3, no unit given (main text uses µg/mL); for MIC: broth microdilution, cation-adjusted MHB II, 5 × 10^5 cfu/mL, read after 18 to 20 h, n = 3. The protocol:
(§2) Minimal inhibitory concentrations (MICs) were determined against Gram-positive Enterococcus faecium vanA (UL 602570*, clinical isolate from Institute for Medical Microbiology and Hygiene, Heidelberg University Hospital, Heidelberg, Germany), Staphylococcus aureus (ATCC 25923), Rothia kristinae (DSM 20032), and Gram-negative Acinetobacter bohemicus (DSM 100419) (all obtained from the Department of Infectious Diseases, Medical Microbiology and Hygiene, Heidelberg University, Heidelberg, Germany) in a 96-well polypropylene plate (650261 Greiner Bio-One GmbH, Frickenhausen, Germany) according to European Committee on Antimicrobial Susceptibility Testing (EUCAST) and The Clinical & Laboratory Standards Institute (CLSI) guidelines. Briefly, the stock solutions of the peptide conjugates in water were adjusted to a concentration of 1.28 mg/mL. Starting with the highest concentration of 64 μg/mL in 96-well polypropylene plates, dilution series in cation-adjusted Mueller–Hinton broth (MHB II; Sigma Aldrich, Steinheim, Germany) were performed, resulting in the lowest concentration of 0.125 μg/mL. A logarithmic growing bacterial culture was adjusted to a McFarland corresponding to 1 × 10^8 cfu/mL using a McFarland counter (DensiCHEK® plus, bioMerieux, Marcy-l’Étoile, France). Finally, a bacterial suspension of 1 × 10^6 cfu/mL (further diluted in MHB II) was added to each peptide-conjugate concentration. Thus, the final bacterial concentration in each well was 5 × 10^5 cfu/mL. The bacteria were incubated at 37 ± 1 °C (for A. bohemicus: 30 ± 1 °C) overnight and the bacterial growth was analyzed after 18 to 20 h. The MIC was defined as the lowest concentration of substance without any visible growth. Vancomycin and colistin sulfate were purchased from Sigma-Aldrich Chemie GmbH, München, Germany and Carl Roth GmbH, Karlsruhe, Germany.

In data set [3] the test system is Rothia kristinae (DSM 20032). Briefly: Time-kill studies. Type of data set: cell-based. The protocol:
Time–kill studies were performed in accordance with CLSI guidelines. Therefore, Rothia kristinae DSM 20032 was adjusted to a concentration of 1 x 10^8 cfu/mL and further diluted to 1 × 10^6 cfu/mL in cation-adjusted MHB II. According to the previous determined MIC values of Pep19-4LF, C11-Pep19-4LF, and bacitracin (positive control) (Sigma Aldrich Chemie GmbH, München, Germany), samples were taken for 4 × MIC, 2 × MIC, 1 × MIC, and 0.5 × MIC after 30 min, 1 h, 2 h, 4 h, and 8 h. These samples were diluted in sterile saline and 10 µL of each sample was loaded onto agar plates. A bacterial suspension of 1 × 10^6 cfu/mL served as a growth control. Incubation occurred at 37 ± 1 °C and all counted colonies were recalculated to the colony number in the original inoculum.

Data set [4] has as its system Staphylococcus aureus (ATCC 25923). Kind of data set: Minimal inhibitory concentration (MIC), broth microdilution. Type of data set: cell-based. Conditions: cation-adjusted MHB II, 5 × 10^5 cfu/mL, 37 ± 1 °C, read after 18 to 20 h, n = 3. The protocol:
as §2

In data set [5] the test system is Rothia kristinae (DSM 20032). Described as above. The data set is classed as cell-based. The settings on record: Table 3 of supplement, n=3; unit inferred; 37 ± 1 °C. The protocol: as §2
Data set [6] has as its system Rothia kristinae (DSM 20032). Kind of data set: Minimal bactericidal concentration (MBC). The settings on record: Table 3 of supplement, n=3; unit inferred; lowest concentration killing 99.9% of the inoculum; agar 24 h, 37 ± 1 °C. Type of data set: cell-based. The protocol:
as §1

In data set [7] the test system is Enterococcus faecium (UL602570*, clinical isolate, vanA-resistant). Kind of data set: Minimal inhibitory concentration (MIC), broth microdilution. Conditions: cation-adjusted MHB II, 5 × 10^5 cfu/mL, 37 ± 1 °C, read after 18 to 20 h, n = 3. The data set is classed as cell-based. The protocol:
as §2

For data set [8] the following is noted: rat, in vivo, iv.
Procedure: For this purpose, the tyrosine residues of the peptides were radiolabeled with ^125I (Hartmann Analytic GmbH, Braunschweig, Germany) using the chloramine-T method [28]. Free ^125I was separated by preparative HPLC as previously described by Schieck et al. [22]. Approximately 2 to 4 MBq of the radiolabeled peptides was injected intravenously into the tail vein and images were recorded immediately post injection and after 1 h, 2 h, 3 h, 5 h, and 24 h. Scintigraphical images were obtained by using a γ-camera (Gamma Imager, Biospace Lab, Paris, France).

In brackets after ≈: the same amount, converted by molar mass. Peptide text beside a SMILES is read from it. * marks the point of attachment. Stearoyl = CCCCCCCCCCCCCCCCCC(=O)*; Palmitoyl = CCCCCCCCCCCCCCCC(=O)*; Myristoyl = CCCCCCCCCCCCCC(=O)*; Lauroyl = CCCCCCCCCCCC(=O)*; Decanoyl = CCCCCCCCCC(=O)*; Octanoyl = CCCCCCCC(=O)*

In data set [1], `CCCCCCCCCCCCCC(=O)NCC(=O)N[C@@H](CCCCN)C(=O)N[C@@H](CCCCN)C(=O)N[C@@H](Cc1ccc(O)cc1)C(=O)N[C@@H](CCCNC(=N)N)C(=O)N[C@@H](CCCNC(=N)N)C(=O)N[C@@H](Cc1ccccc1)C(=O)N[C@@H](CCCNC(=N)N)C(=O)N[C@@H](Cc1c[nH]c2ccccc12)C(=O)N[C@@H](CCCCN)C(=O)N[C@@H](Cc1ccccc1)C(=O)N[C@@H](CCCCN)C(=O)NCC(=O)N[C@@H](CCCCN)C(N)=O` [C14-Pep19-short] (Myristoyl-GKKYRRFRWKFKGK-NH2) registered an MBC value of 8 µg/mL (≈ 3.82 µM). This compound also came in with an MIC value in data set [2] of 8.
As for bacitracin, the “change in number of cfu/mL” value in data set [3] (0.5 × MIC, 0 to 8 h, n = 3) is on record as “only a small decrease in the number of cfu/mL”. In addition, the mode of action result was “bacteriostatic mode of action” in data set [3] (2 × MIC, n=3) and “bactericidal activity” in data set [3] (4 × MIC, n = 3). Also, the “time until no detectable cfu” value in data set [3] (4 × MIC, 1 × 10^6 cfu/mL in MHB II, 37 °C, n = 3) amounted to 8 h.
Regarding `N=C(N)NCCC[C@H](NC(=O)[C@H](Cc1ccc(O)cc1)NC(=O)[C@H](CCCCN)NC(=O)[C@H](CCCCN)NC(=O)[C@H](CS)NC(=O)CN)C(=O)N[C@@H](CCCNC(=N)N)C(=O)N[C@@H](Cc1ccccc1)C(=O)N[C@@H](CCCNC(=N)N)C(=O)N[C@@H](Cc1c[nH]c2ccccc12)C(=O)N[C@@H](CCCCN)C(=O)N[C@@H](Cc1ccccc1)C(=O)N[C@@H](CCCCN)C(=O)NCC(=O)N[C@@H](CCCCN)C(=O)N[C@@H](Cc1ccccc1)C(=O)N[C@@H](Cc1c[nH]c2ccccc12)C(=O)N[C@@H](Cc1ccccc1)C(=O)N[C@@H](Cc1c[nH]c2ccccc12)C(=O)NCC(N)=O` [Pep19-2.5, reference compound], the MBC value in data set [1] is greater than 64 µg/mL. Further, in data set [2], the MIC value is reported as greater than 64.
`CCCCCCCCCC(=O)NCC(=O)N[C@@H](CCCCN)C(=O)N[C@@H](CCCCN)C(=O)N[C@@H](Cc1ccc(O)cc1)C(=O)N[C@@H](CCCNC(=N)N)C(=O)N[C@@H](CCCNC(=N)N)C(=O)N[C@@H](Cc1ccccc1)C(=O)N[C@@H](CCCNC(=N)N)C(=O)N[C@@H](Cc1c[nH]c2ccccc12)C(=O)N[C@@H](CCCCN)C(=O)N[C@@H](Cc1ccccc1)C(=O)N[C@@H](CCCCN)C(=O)NCC(=O)N[C@@H](CCCCN)C(N)=O` [C10-Pep19-short] (Decanoyl-GKKYRRFRWKFKGK-NH2): the MBC value in data set [1] turned out to be 4 µg/mL (≈ 1.96 µM). In data set [2], this compound displayed an MIC value of 4.
For `CCCCCCCCCCCCCCCC(=O)NCC(=O)N[C@@H](CCCCN)C(=O)N[C@@H](CCCCN)C(=O)N[C@@H](Cc1ccc(O)cc1)C(=O)N[C@@H](CCCNC(=N)N)C(=O)N[C@@H](CCCNC(=N)N)C(=O)N[C@@H](Cc1ccccc1)C(=O)N[C@@H](CCCNC(=N)N)C(=O)N[C@@H](Cc1c[nH]c2ccccc12)C(=O)N[C@@H](CCCCN)C(=O)N[C@@H](Cc1ccccc1)C(=O)N[C@@H](CCCCN)C(=O)NCC(=O)N[C@@H](CCCCN)C(N)=O` [C16-Pep19-short] (Palmitoyl-GKKYRRFRWKFKGK-NH2), the MIC result in data set [4] and in data set [2] was “higher MIC values” throughout. Also, in data set [1], the MBC value was greater than 64 µg/mL. In data set [2], this compound had an MIC value greater than 64.
Turning to `CCCCCCCCCCCCCCCCCC(=O)NCC(=O)N[C@@H](CCCCN)C(=O)N[C@@H](CCCCN)C(=O)N[C@@H](Cc1ccc(O)cc1)C(=O)N[C@@H](CCCNC(=N)N)C(=O)N[C@@H](CCCNC(=N)N)C(=O)N[C@@H](Cc1ccccc1)C(=O)N[C@@H](CCCNC(=N)N)C(=O)N[C@@H](Cc1c[nH]c2ccccc12)C(=O)N[C@@H](CCCCN)C(=O)N[C@@H](Cc1ccccc1)C(=O)N[C@@H](CCCCN)C(=O)NCC(=O)N[C@@H](CCCCN)C(N)=O` [C18-Pep19-short] (Stearoyl-GKKYRRFRWKFKGK-NH2), the MIC value in data set [5] is greater than 64 µg/mL; in data set [2], greater than 64. The minimum inhibitory concentration (MIC) entry in data set [4] and in data set [2] was “higher MIC values” throughout. The MBC value in data set [6] and in data set [1] was greater than 64 µg/mL in each case.
For the compound “GKKYRRFRWKFKGK-NH2 [Pep19-short, shortened variant of Pep19-4LF without hydrophobic moiety, …-NH2]”, the MIC in data set [7] is greater than 64 µg/mL; in data set [4] it was greater than 64 µg/mL; in data set [2], 64 µg/mL. In data set [1], this compound had an MBC value of 64 µg/mL. Further, the “speed of elimination compared among the peptides” value in data set [8] is recorded as “no difference in the elimination time”. In data set [2], the MIC value worked out at 64.
`CCCCCCCCCCCC(=O)NCC(=O)N[C@@H](CCCCN)C(=O)N[C@@H](CCCCN)C(=O)N[C@@H](Cc1ccc(O)cc1)C(=O)N[C@@H](CCCNC(=N)N)C(=O)N[C@@H](CCCNC(=N)N)C(=O)N[C@@H](Cc1ccccc1)C(=O)N[C@@H](CCCNC(=N)N)C(=O)N[C@@H](Cc1c[nH]c2ccccc12)C(=O)N[C@@H](CCCCN)C(=O)N[C@@H](Cc1ccccc1)C(=O)N[C@@H](CCCCN)C(=O)NCC(=O)N[C@@H](CCCCN)C(N)=O` [C12-Pep19-short] (Lauroyl-GKKYRRFRWKFKGK-NH2) returned an MBC value in data set [1] of 4 µg/mL (≈ 1.94 µM). In addition, the MIC value in data set [2] is reported as 4.
Regarding `CCCCCCCC(=O)NCC(=O)N[C@@H](CCCCN)C(=O)N[C@@H](CCCCN)C(=O)N[C@@H](Cc1ccc(O)cc1)C(=O)N[C@@H](CCCNC(=N)N)C(=O)N[C@@H](CCCNC(=N)N)C(=O)N[C@@H](Cc1ccccc1)C(=O)N[C@@H](CCCNC(=N)N)C(=O)N[C@@H](Cc1c[nH]c2ccccc12)C(=O)N[C@@H](CCCCN)C(=O)N[C@@H](Cc1ccccc1)C(=O)N[C@@H](CCCCN)C(=O)NCC(=O)N[C@@H](CCCCN)C(N)=O` [C8-Pep19-short] (Octanoyl-GKKYRRFRWKFKGK-NH2), the MBC value in data set [1] was determined as 8 µg/mL (≈ 3.98 µM). In data set [2], this compound came in with an MIC value of 8.
